The results in this text go back to US9770026B2, “Substituted pyrimidine compound and uses thereof” (Shenyang Sinochem Agrochemicals R&D Co., Ltd., priority 2012, dated 2017).

For one assay, the system named is cucumber downy mildew. The experiment in a line: protectant activity in vivo against cucumber downy mildew. The settings on record: Cucumis sativus, 168 h, protectant activity; for pest or weed control at 25 µg/mL: read-out: control effect against cucumber downy mildew (%), 25 mg/L; for pest or weed control at 50 µg/mL: read-out: control effect against cucumber downy mildew (%), 50 mg/L; for pest or weed control at 100 µg/mL: read-out: control effect against cucumber downy mildew (%), 100 mg/L; for pest or weed control at 400 µg/mL: read-out: control effect against cucumber downy mildew (%), 400 mg/L.

Assay [1] has as its system Green peach aphids (Myzus Persicae Sulzer). Put plainly: bioactivity test against green peach aphid, airbrush foliar spray. Format: in vivo. The settings on record: Myzus persicae, foliar, 48 h, contrastive test, read-out: Insecticidal activity against peach aphid (%); for pest or weed control at 600 µg/mL: 600 mg/L; for pest or weed control at 10 µg/mL: 10 mg/L; for pest or weed control at 100 µg/mL: 100 mg/L. The gist of the method:
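Aphids (15-30 per cabbage leaf disc) on moist filter paper were airbrush-sprayed at 10 psi, 0.5 mL, with compound from acetone:methanol (1:1) diluted in water with 0.1% tween 80. Held at 25±1 C, 60±5% RH; survivors counted after 48 hrs to give death rates.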

The next assay deals with Diamond back moth. Put plainly: insecticidal activity against diamond back moth, airbrush spray. Format: in vivo. The settings on record: 72 h, 600 mg/L. The gist of the method: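 Airbrush leaf-disc spray test: both faces of 2 cm cabbage discs received 0.5 ml of test solution at 0.7 kg/cm^2. Solutions were made in acetone:methanol (1:1) and brought to concentration with 0.1% Tween 80 in water. Ten second-instar larvae per disc, triplicates, were held at 25° C and 60˜70% R.H., with mortality recorded at 72 hrs.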

The test system of a further assay is cucumber gray mold. The experiment in a line: fungicidal activity in vitro (inhibition rate) against cucumber gray mold. Format: cell-based. The settings on record: 25 ppm, in vitro; read-out: inhibition rate against cucumber gray mold.
Another assay deals with corn rust. Put plainly: protectant activity in vivo against corn rust. The settings on record: Zea mays, 168 h, protectant activity; for pest or weed control at 6.25 µg/mL: read-out: control effect against corn rust (%), 6.25 mg/L; for pest or weed control at 25 µg/mL: read-out: control effect against corn rust (%), 25 mg/L; for pest or weed control at 100 µg/mL: read-out: control effect against corn rust (%), 100 mg/L; for pest or weed control at 400 µg/mL: read-out: control effect against corn rust (%), 400 mg/L.

The subject of the next assay is wheat powdery mildew. Put plainly: protectant activity in vivo against wheat powdery mildew. The settings on record: Triticum aestivum, 168 h, protectant activity; for pest or weed control at 6.25 µg/mL: read-out: control effect against wheat powdery mildew (%), 6.25 mg/L; for pest or weed control at 25 µg/mL: read-out: control effect against wheat powdery mildew (%), 25 mg/L; for pest or weed control at 100 µg/mL: read-out: control effect against wheat powdery mildew (%), 100 mg/L; for pest or weed control at 400 µg/mL: read-out: control effect against wheat powdery mildew (%), 400 mg/L.

In the next assay the test system is armyworm. Put plainly: bioactivity test against armyworm, airbrush spray. The settings on record: 72 h, read-out: Insecticidal activity against armyworm (%); for pest or weed control at 600 µg/mL: 600 mg/L. Format: in vivo.
The subject of a further assay is carmine spider mite. The experiment in a line: bioactivity test against carmine spider mite, airbrush spray. Type of assay: in vivo. The settings on record: Tetranychus cinnabarinus, 72 h, contrastive test, read-out: Insecticidal activity against carmine spider mite (% ); for pest or weed control at 600 µg/mL: 600 mg/L; for pest or weed control at 10 µg/mL: 10 mg/L; for pest or weed control at 100 µg/mL: 100 mg/L. The method, boiled down:
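Broadbean seedlings infested with adult mites were sprayed with compound (acetone/methanol stock diluted in 0.1% Tween 80 water) by airbrush at 0.7 kg/cm^2, 0.5 ml. Three replicates were run. Mortality was scored after 72 hrs.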

In general, inhibition refers to the change of the read-out against control, counted positive when it falls.

For `Cc1ncnc(NCc2ccc(Oc3ccc(C(F)(F)F)cn3)cc2)c1Cl` [CK22, reference compound], in the assay with cucumber downy mildew, the pest or weed control at 25 µg/mL is 60%, the pest or weed control at 50 µg/mL worked out at 75%, the pest or weed control at 100 µg/mL is 98% and the pest or weed control at 400 µg/mL stood at 100%. In addition, in assay [1], the pest or weed control at 600 µg/mL amounted to 0%. Besides, in the assay with Diamond back moth, the pest or weed control at 600 µg/mL was 0%. The inhibition at 25 ppm with cucumber gray mold turned out to be 0%. Moreover, in the assay with corn rust, the pest or weed control at 6.25 µg/mL was 0%, the pest or weed control at 25 µg/mL came to 40%, the pest or weed control at 100 µg/mL turned out to be 100% and the pest or weed control at 400 µg/mL came out at 100%. Moreover, in the assay with wheat powdery mildew, the pest or weed control at 6.25 µg/mL worked out at 0%, the pest or weed control at 25 µg/mL was determined as 50%, the pest or weed control at 100 µg/mL came to 90% and the pest or weed control at 400 µg/mL worked out at 100%. The pest or weed control at 600 µg/mL in the assay with armyworm was 0%.

For the compound `CCc1ncnc(OCc2ccc(Oc3ccc(Cl)cc3)nc2)c1Cl` [CK25, reference compound], the pest or weed control at 25 µg/mL in the assay on cucumber downy mildew turned out to be 0%. Also, the pest or weed control at 50 µg/mL with cucumber downy mildew was 0%. Further, in the assay with cucumber downy mildew, the pest or weed control at 100 µg/mL turned out to be 0%. Further, the pest or weed control at 400 µg/mL with cucumber downy mildew came out at 100%; in the assay with corn rust, 0%; in the assay with wheat powdery mildew it was 0%. Besides, the pest or weed control at 600 µg/mL (in assay [1]; in the assay on Diamond back moth; in the assay with armyworm; with carmine spider mite) was 0% in each case. Moreover, in the assay with cucumber gray mold, the inhibition at 25 ppm is under 50%.

`N#Cc1ccc(Oc2ccc(CCNc3nc(Cl)ncc3Cl)cc2)nc1` [CK26, reference compound]: the pest or weed control at 25 µg/mL with cucumber downy mildew and in the assay on corn rust was 0% each time. Besides, in the assay with cucumber downy mildew, the pest or weed control at 50 µg/mL amounted to 40%. In addition, the pest or weed control at 100 µg/mL stood at 60% in the assay with cucumber downy mildew, 48% in assay [1] and 0% in the assay on corn rust. For the same compound, the pest or weed control at 400 µg/mL in the assay with cucumber downy mildew came to 100%; in the assay with corn rust it was 100%; with wheat powdery mildew it was 70%. For the same compound, the pest or weed control at 10 µg/mL in assay [1] came out at 45%. The pest or weed control at 600 µg/mL in assay [1] was 100%; in the assay on Diamond back moth it was 0%; in the assay with armyworm it was 0%; with carmine spider mite, 0%. Further, in the assay on cucumber gray mold, the inhibition at 25 ppm came to 0%. For the same compound, in the assay with corn rust, the pest or weed control at 6.25 µg/mL worked out at 0%.

`COC(=O)c1nc(Cl)nc(NC(C)c2ccc(Oc3ncc(C(F)(F)F)cc3Cl)cc2)c1Cl` (stereo not drawn) [CK34, reference compound]: the pest or weed control at 400 µg/mL was 85% in the assay on cucumber downy mildew, 0% in the assay with corn rust and 0% with wheat powdery mildew. The pest or weed control at 600 µg/mL is 65% in assay [1], 0% with Diamond back moth, 0% in the assay on armyworm and 0% with carmine spider mite. For the same compound, the inhibition at 25 ppm with cucumber gray mold was 0%.

Turning to `FC(F)(F)c1ccc(Oc2ccc(CCNc3ncnc(Cl)c3Cl)cc2)nc1` [CK73, reference compound], the pest or weed control at 25 µg/mL with cucumber downy mildew worked out at 60%; in the assay on corn rust, 10%. Moreover, the pest or weed control at 50 µg/mL with cucumber downy mildew was determined as 95%. Also, the pest or weed control at 100 µg/mL with cucumber downy mildew was 98%; in assay [1], 100%; with corn rust it was 90%; in the assay with armyworm (100 mg/L), 50%; in the assay on carmine spider mite it was 85%. Besides, the results for the pest or weed control at 400 µg/mL with cucumber downy mildew, in the assay with corn rust and in the assay with wheat powdery mildew were 98%, 100% and 40%, respectively. Moreover, the pest or weed control at 10 µg/mL in assay [1] was determined as 0%; with armyworm (10 mg/L), 0%; with carmine spider mite, 24%. The pest or weed control at 600 µg/mL (in assay [1]; with armyworm; in the assay with carmine spider mite) was 100% throughout. Besides, in the assay with cucumber gray mold, the inhibition at 25 ppm is 0%. In addition, the pest or weed control at 6.25 µg/mL in the assay on corn rust was 0%.

As to `FC(F)(F)c1cccnc1Oc1ccc(CCNc2nc(Cl)ncc2Cl)cc1` [CK81, reference compound], the pest or weed control at 600 µg/mL in assay [1] was determined as 75%; with Diamond back moth, 0%; in the assay with armyworm, 14%; in the assay with carmine spider mite it was 0%. In addition, the inhibition at 25 ppm with cucumber gray mold was found to be 0%. Besides, the pest or weed control at 400 µg/mL in the assay with corn rust turned out to be 80%; with wheat powdery mildew, 40%.

With `FC(F)(F)c1cccnc1Oc1ccc(CCNc2cc(Cl)nc(Cl)n2)cc1` [CK82, reference compound], in assay [1], the pest or weed control at 10 µg/mL was 0% and the pest or weed control at 600 µg/mL was found to be 86%. The pest or weed control at 600 µg/mL with Diamond back moth was found to be 17%. For the same compound, the inhibition at 25 ppm in the assay with cucumber gray mold was 0%. Moreover, in the assay on corn rust, the pest or weed control at 6.25 µg/mL is 0%, the pest or weed control at 25 µg/mL turned out to be 0%, the pest or weed control at 100 µg/mL turned out to be 30% and the pest or weed control at 400 µg/mL was 100%. Also, in the assay on wheat powdery mildew, the pest or weed control at 6.25 µg/mL stood at 0%, the pest or weed control at 25 µg/mL turned out to be 0%, the pest or weed control at 100 µg/mL is 80% and the pest or weed control at 400 µg/mL worked out at 100%. Further, in the assay with armyworm, the pest or weed control at 600 µg/mL came out at 0%. Also, the pest or weed control at 600 µg/mL in the assay with carmine spider mite came out at 23%.

Turning to `N#Cc1ccc(Oc2ccc(CCNc3cc(Cl)ncn3)cc2)nc1` [CK83, reference compound], in the assay on cucumber downy mildew, the pest or weed control at 25 µg/mL was 85%, the pest or weed control at 50 µg/mL stood at 98%, the pest or weed control at 100 µg/mL was 100% and the pest or weed control at 400 µg/mL turned out to be 100%. Further, in assay [1], the pest or weed control at 10 µg/mL was found to be 11%, the pest or weed control at 100 µg/mL came to 100% and the pest or weed control at 600 µg/mL came out at 100%. In addition, the pest or weed control at 600 µg/mL in the assay with Diamond back moth stood at 17%. In addition, in the assay on cucumber gray mold, the inhibition at 25 ppm turned out to be 0%. For the same compound, the pest or weed control at 400 µg/mL in the assay with corn rust came to 30%. In addition, in the assay with wheat powdery mildew, the pest or weed control at 6.25 µg/mL worked out at 40%, the pest or weed control at 25 µg/mL is 70%, the pest or weed control at 100 µg/mL is 100% and the pest or weed control at 400 µg/mL worked out at 100%. In addition, the pest or weed control at 600 µg/mL in the assay with armyworm came out at 29%.

With `Cc1nc(Cl)cc(NCCc2ccc(Oc3ccc(C#N)cn3)cc2)n1` [CK84, reference compound], in the assay on cucumber downy mildew, the pest or weed control at 25 µg/mL was determined as 85%, the pest or weed control at 50 µg/mL was 100%, the pest or weed control at 100 µg/mL is 100% and the pest or weed control at 400 µg/mL amounted to 100%. Besides, in assay [1], the pest or weed control at 10 µg/mL was 7%, the pest or weed control at 100 µg/mL was 43% and the pest or weed control at 600 µg/mL is 100%. Besides, the pest or weed control at 600 µg/mL in the assay with Diamond back moth turned out to be 0%. Further, the inhibition at 25 ppm in the assay with cucumber gray mold stood at 0%. In the assay on corn rust, the pest or weed control at 6.25 µg/mL turned out to be 0%, the pest or weed control at 25 µg/mL came out at 60%, the pest or weed control at 100 µg/mL stood at 90% and the pest or weed control at 400 µg/mL worked out at 100%. For the same compound, the pest or weed control at 600 µg/mL with armyworm stood at 0%. Also, in the assay on carmine spider mite, the pest or weed control at 10 µg/mL turned out to be 0%, the pest or weed control at 100 µg/mL came out at 0% and the pest or weed control at 600 µg/mL was 100%.
